Results on 14 compounds are retold here after ChEMBL document CHEMBL4020753, “Inhibition of amyloid β aggregation and protective effect on SH-SY5Y cells by triterpenoid saponins from the cactus Polaskia chichipe” (Bioorg Med Chem, 2017).

The source made the active and inactive calls. The rule behind the calls is not given here.

Amyloid-beta precursor protein (Homo sapiens), sequence (P05067 whole entry): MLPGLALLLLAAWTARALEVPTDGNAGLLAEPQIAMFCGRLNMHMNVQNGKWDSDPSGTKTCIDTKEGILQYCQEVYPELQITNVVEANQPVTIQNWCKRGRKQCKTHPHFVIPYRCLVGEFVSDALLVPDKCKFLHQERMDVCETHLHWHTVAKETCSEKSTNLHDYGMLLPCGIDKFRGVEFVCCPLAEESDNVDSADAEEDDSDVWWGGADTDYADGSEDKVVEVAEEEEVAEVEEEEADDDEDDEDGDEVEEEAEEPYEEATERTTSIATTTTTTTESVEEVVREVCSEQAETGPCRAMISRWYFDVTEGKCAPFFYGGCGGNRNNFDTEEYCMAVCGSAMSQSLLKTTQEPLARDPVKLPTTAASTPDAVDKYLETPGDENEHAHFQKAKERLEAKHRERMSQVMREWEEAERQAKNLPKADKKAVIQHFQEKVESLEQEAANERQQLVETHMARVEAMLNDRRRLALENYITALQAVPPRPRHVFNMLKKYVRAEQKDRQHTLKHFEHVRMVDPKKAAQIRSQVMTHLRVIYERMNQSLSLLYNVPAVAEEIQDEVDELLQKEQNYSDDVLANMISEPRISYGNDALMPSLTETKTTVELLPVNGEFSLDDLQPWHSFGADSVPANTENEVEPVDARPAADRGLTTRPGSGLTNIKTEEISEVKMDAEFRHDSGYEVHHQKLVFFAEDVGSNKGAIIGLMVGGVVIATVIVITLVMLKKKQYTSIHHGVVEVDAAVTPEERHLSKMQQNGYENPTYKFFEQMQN

The first test addresses Amyloid-beta precursor protein (Homo sapiens) (UniProt P05067). Description: Inhibition of amyloid beta (1 to 42) (unknown origin)-induced cytotoxicity in human SH-SY5Y cells assessed as cell viability at 50 uM after 24 hrs by WST8 assay (reference value: 63.1 +/- 5.6%). The test is classed as cell-based.
For the compound `COC(=O)[C@H]1O[C@@H](O[C@H]2CC[C@]3(C)[C@H]4CC=C5[C@@H]6CC(C)(C)C[C@H](OC(C)=O)[C@]6(COC(C)=O)[C@@H](OC(C)=O)C[C@@]5(C)[C@]4(C)CC[C@H]3C2(C)C)[C@H](O[C@@H]2O[C@H](CO)[C@@H](O)[C@H](O)[C@H]2O)[C@@H](O[C@@H]2O[C@@H](C)[C@H](O)[C@@H](O)[C@H]2O)[C@@H]1O`, the Activity came to 79.2%.

Regarding `CC(=O)OC[C@]12[C@@H](OC(C)=O)CC(C)(C)C[C@H]1C1=CC[C@@H]3[C@@]4(C)CC[C@H](O[C@@H]5O[C@H](C(=O)O)[C@@H](O)[C@H](O)[C@H]5O[C@@H]5O[C@H](CO)[C@@H](O)[C@H](O)[C@H]5O[C@@H]5OC[C@@H](O)[C@H](O)[C@H]5O)C(C)(C)[C@@H]4CC[C@@]3(C)[C@]1(C)C[C@@H]2OC(C)=O`, the Activity turned out to be 83.7%.

For `CC(=O)OC[C@]12[C@@H](OC(C)=O)CC(C)(C)C[C@H]1C1=CC[C@@H]3[C@@]4(C)CC[C@H](O[C@@H]5O[C@H](C(=O)O)[C@@H](O)[C@H](O[C@@H]6O[C@@H](C)[C@H](O)[C@@H](O)[C@H]6O)[C@H]5O[C@@H]5O[C@H](CO)[C@@H](O)[C@H](O)[C@H]5O)C(C)(C)[C@@H]4CC[C@@]3(C)[C@]1(C)C[C@@H]2OC(C)=O`, the Activity was determined as 87.4%.

As for `COC(=O)[C@H]1O[C@@H](O[C@H]2CC[C@]3(C)[C@H]4CC=C5[C@@H]6CC(C)(C)C[C@H](OC(C)=O)[C@]6(COC(C)=O)[C@@H](OC(C)=O)C[C@@]5(C)[C@]4(C)CC[C@H]3C2(C)C)[C@H](O[C@@H]2O[C@H](CO)[C@@H](O)[C@H](O)[C@H]2O[C@@H]2OC[C@@H](O)[C@H](O)[C@H]2O)[C@@H](O)[C@@H]1O`, the Activity stood at 84.3%.

The target is the same in another test. Description: Inhibition of amyloid beta (1 to 42) (unknown origin)-induced cytotoxicity in human SH-SY5Y cells assessed as increase in cell viability at 50 uM after 24 hrs by WST8 assay. Format: cell-based.
Consider `CC(=O)OC[C@]12[C@@H](OC(C)=O)CC(C)(C)C[C@H]1C1=CC[C@@H]3[C@@]4(C)CC[C@H](O[C@@H]5O[C@H](C(=O)O)[C@@H](O)[C@H](O)[C@H]5O[C@@H]5O[C@H](CO)[C@@H](O)[C@H](O)[C@H]5O[C@@H]5O[C@@H](C)[C@H](O)[C@@H](O)[C@H]5O)C(C)(C)[C@@H]4CC[C@@]3(C)[C@]1(C)C[C@@H]2OC(C)=O`, for which the “protection from amyloid beta cytotoxicity (active/not active)” value (“protection … (active/not active)” for short) is “inactive”.

As for `C[C@@H]1O[C@@H](OC(=O)[C@]23CCC(C)(C)C[C@H]2C2=CC[C@@H]4[C@@]5(C)CC[C@H](O[C@@H]6O[C@H](C(=O)O)[C@@H](O)[C@H](O)[C@H]6O[C@@H]6O[C@H](CO)[C@@H](O)[C@H](O)[C@H]6O[C@@H]6OC[C@@H](O)[C@H](O)[C@H]6O)C(C)(C)[C@@H]5CC[C@@]4(C)[C@]2(C)C[C@@H]3O)[C@H](O)[C@H](O)[C@H]1O`, the “protection … (active/not active)” value was “Active”.

As to `C[C@@H]1O[C@@H](O[C@H]2[C@H](O)[C@@H](C(=O)O)O[C@@H](O[C@H]3CC[C@]4(C)[C@H]5CC=C6[C@@H]7CC(C)(C)CC[C@]7(C(=O)O[C@@H]7O[C@H](CO)[C@@H](O)[C@H](O)[C@H]7O)CC[C@@]6(C)[C@]5(C)CC[C@H]4C3(C)C)[C@@H]2O[C@@H]2O[C@H](CO)[C@@H](O)[C@H](O)[C@H]2O)[C@H](O)[C@H](O)[C@H]1O`, the “protection … (active/not active)” value is “Active”.

`CC1(C)CC[C@]2(C(=O)O[C@@H]3O[C@H](CO)[C@@H](O)[C@H](O)[C@H]3O)CC[C@]3(C)C(=CC[C@@H]4[C@@]5(C)CC[C@H](O[C@@H]6O[C@H](C(=O)O)[C@@H](O)[C@H](O)[C@H]6O[C@@H]6O[C@H](CO)[C@@H](O)[C@H](O)[C@H]6O[C@@H]6OC[C@@H](O)[C@H](O)[C@H]6O)C(C)(C)[C@@H]5CC[C@]43C)[C@@H]2C1`: the “protection … (active/not active)” value was “Active”.

`C[C@@H]1O[C@@H](OC(=O)[C@]23CCC(C)(C)C[C@H]2C2=CC[C@@H]4[C@@]5(C)CC[C@H](O[C@@H]6O[C@H](C(=O)O)[C@@H](O)[C@H](O[C@@H]7O[C@@H](C)[C@H](O)[C@@H](O)[C@H]7O)[C@H]6O[C@@H]6O[C@H](CO)[C@@H](O)[C@H](O)[C@H]6O)C(C)(C)[C@@H]5CC[C@@]4(C)[C@]2(C)C[C@@H]3O)[C@H](O)[C@H](O)[C@H]1O`: the “protection … (active/not active)” value is “Active”.

The target is the same in another test. Description: Inhibition of amyloid beta (1 to 42) (unknown origin)-induced cytotoxicity in human SH-SY5Y cells assessed as increase in cell viability at 12.5 uM after 24 hrs by WST8 assay. Format: cell-based.
As for `O=C(OC[C@H]1O[C@@H](OC(=O)c2cc(O)c(O)c(OC(=O)c3cc(O)c(O)c(O)c3)c2)[C@H](OC(=O)c2cc(O)c(O)c(OC(=O)c3cc(O)c(O)c(O)c3)c2)[C@@H](OC(=O)c2cc(O)c(O)c(OC(=O)c3cc(O)c(O)c(O)c3)c2)[C@@H]1OC(=O)c1cc(O)c(O)c(OC(=O)c2cc(O)c(O)c(O)c2)c1)c1cc(O)c(O)c(OC(=O)c2cc(O)c(O)c(O)c2)c1`, the inhibition result was “inactive”.

With `CC1(C)C[C@H](O)[C@]2(CO)[C@@H](O)C[C@]3(C)C(=CC[C@@H]4[C@@]5(C)CC[C@H](O)C(C)(C)[C@@H]5CC[C@]43C)[C@@H]2C1`, the inhibition entry is “inactive”.

For `CC1(C)CC[C@]2(C(=O)O)CC[C@]3(C)C(=CC[C@@H]4[C@@]5(C)CC[C@H](O)C(C)(C)[C@@H]5CC[C@]43C)[C@@H]2C1`, the inhibition entry is “inactive”.

Turning to `CC(=O)OC[C@]12[C@@H](OC(C)=O)CC(C)(C)C[C@H]1C1=CC[C@@H]3[C@@]4(C)CC[C@H](O)C(C)(C)[C@@H]4CC[C@@]3(C)[C@]1(C)C[C@@H]2OC(C)=O`, the inhibition result was “inactive”.

Regarding `CC1(C)CC[C@]2(C(=O)O)[C@@H](O)C[C@]3(C)C(=CC[C@@H]4[C@@]5(C)CC[C@H](O)C(C)(C)[C@@H]5CC[C@]43C)[C@@H]2C1`, the inhibition entry is “inactive”.

A further test has the same target. Description: Inhibition of amyloid beta (1 to 42) (unknown origin)-induced cytotoxicity in human SH-SY5Y cells assessed as cell viability at 6.25 uM after 24 hrs by WST8 assay (reference value: 63.1 +/- 5.6%). Format: cell-based.
With `O=C(OC[C@H]1O[C@@H](OC(=O)c2cc(O)c(O)c(OC(=O)c3cc(O)c(O)c(O)c3)c2)[C@H](OC(=O)c2cc(O)c(O)c(OC(=O)c3cc(O)c(O)c(O)c3)c2)[C@@H](OC(=O)c2cc(O)c(O)c(OC(=O)c3cc(O)c(O)c(O)c3)c2)[C@@H]1OC(=O)c1cc(O)c(O)c(OC(=O)c2cc(O)c(O)c(O)c2)c1)c1cc(O)c(O)c(OC(=O)c2cc(O)c(O)c(O)c2)c1`, the Activity turned out to be 78.8%.
